Data reported in patent US9302999B2, “Substituted triazoles as herbicides” (E. I. DU PONT DE NEMOURS AND COMPANY, priority 2012, dated 2016).

Tests used:
soybean (Glycine max) = assay: Test C pre-/postemergence: soybean; assay type: in vivo
Summary of the method: (§1)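 Preemergence on seeds in loam/sand, postemergence on 2–18 cm (1–4-leaf) plants in peat-based medium; compounds in non-phytotoxic solvent with surfactant. After 13–15 days in greenhouse, visual rating versus controls, 0 (no effect) to 100 (complete control).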

wild oat (Avena fatua) = assay: Test C pre-/postemergence: wild oat; assay type: in vivo; conditions: Postemergence
Summary of the method: as §1

[1] = system: ducksalad (Heteranthera limosa); assay: Test B flooded paddy: ducksalad; assay type: in vivo; conditions: Flood; 125 g ai/ha; applied to paddy water at 2-leaf stage; visually evaluated after 13 to 15 days
Summary of the method: (§2)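 Plants were grown to the 2-leaf stage and pots flooded to 3 cm above soil. Compounds were applied directly into the paddy water, with depth kept for the test. After 13–15 days in greenhouse, response was rated visually against controls on a 0 (no effect) to 100 (complete control) scale.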

[2] = system: lambsquarters (Chenopodium album); assay: Test C pre-/postemergence: lambsquarters; assay type: in vivo
Summary of the method: as §1

Waterhemp = assay: Test C postemergence: waterhemp; assay type: in vivo; conditions: 62 g ai/ha, scale 0 to 100 (0 no effect, 100 complete control)
Summary of the method: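 Crop and weed plants were grown in peat-vermiculite medium and treated postemergence at the 1- to 4-leaf stage (2-18 cm tall). After 13-15 days in a greenhouse, each species was rated visually against untreated controls on a 0-100 scale (0 no effect, 100 complete control).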

Barnyardgrass = assay: Test C postemergence: barnyardgrass; assay type: in vivo, Echinochloa crus-galli; conditions: 125 g ai/ha, scale 0 to 100, 0 no effect, 100 complete control
Oilseed Rape = assay: Test C preemergence: oilseed rape; assay type: in vivo, Brassica napus; conditions: 125 g ai/ha, scale 0 to 100, 0 no effect, 100 complete control
[3] = system: velvetleaf (Abutilon theophrasti); assay: Test C pre-/postemergence: velvetleaf; assay type: in vivo
Summary of the method: as §1

rice (Oryza sativa) = assay: Test B flooded paddy: rice; assay type: in vivo; conditions: Flood; 125 g ai/ha; applied to paddy water at 2-leaf stage; visually evaluated after 13 to 15 days
Summary of the method: as §2

[4] = system: foxtail, giant (giant foxtail, Setaria faberii); assay: Test C pre-/postemergence: foxtail, giant; assay type: in vivo
Summary of the method: as §1

[5] = system: sedge, umbrella (small-flower umbrella sedge Cyperus difformis); assay: Test B flooded paddy: sedge, umbrella; assay type: in vivo; conditions: Flood; 125 g ai/ha; applied to paddy water at 2-leaf stage; visually evaluated after 13 to 15 days
Summary of the method: as §2

corn (Zea mays) = assay: Test C pre-/postemergence: corn; assay type: in vivo
Summary of the method: as §1

[6] = Postemergence, 31 g ai/ha, scale 0 to 100 (0 no effect, 100 complete control)
[7] = Postemergence, 62 g ai/ha, scale 0 to 100 (0 no effect, 100 complete control)
[8] = Postemergence, 125 g ai/ha, scale 0 to 100, 0 no effect, 100 complete control
[9] = Postemergence, 250 g ai/ha, scale 0 to 100 (0 no effect, 100 complete control)
[10] = Preemergence, 31 g ai/ha, scale 0 (no effect) to 100 (complete control)
[11] = Preemergence, 62 g ai/ha, scale of 0 to 100, 0 is no effect, 100 is complete control
[12] = Preemergence, 125 g ai/ha, scale 0 to 100, 0 no effect, 100 complete control
[13] = Preemergence, 250 g ai/ha, scale 0 to 100, 0 no effect, 100 complete control
[14] = 31 g ai/ha, scale 0 to 100 (0 no effect, 100 complete control)
[15] = 62 g ai/ha, scale 0 to 100 (0 no effect, 100 complete control)
[16] = 125 g ai/ha, scale 0 to 100, 0 no effect, 100 complete control
[17] = 250 g ai/ha, scale 0 to 100 (0 no effect, 100 complete control)
[18] = Postemergence, 250 g ai/ha, scale 0 to 100

With `CCc1nn(-c2ccc(C(F)(F)F)c(F)c2)nc1Oc1ccnc(C(F)(F)F)c1` [Compound 183] the “Plant response rating, Soybean” value (soybean (Glycine max); [6]) was 35, the “Plant response rating, Soybean” value (soybean (Glycine max); [7]) was 55 and the “Plant response rating, Soybean” value (soybean (Glycine max); [8]) was 55. The “Plant response rating, Soybean” value (soybean (Glycine max); [9]) was 90, the “Plant response rating, Soybean” value (soybean (Glycine max); [10]) was 5 and the “Plant response rating, Soybean” value (soybean (Glycine max); [11]) was 5. For the same compound, the “Plant response rating, Soybean” value (soybean (Glycine max); [12]) was 10, the “Plant response rating, Soybean” value (soybean (Glycine max); [13]) was 30 and the “Plant response rating, Oat, Wild” value (wild oat (Avena fatua); [14]) was 30. For the same compound, the “Plant response rating, Oat, Wild” value (wild oat (Avena fatua); [15]) was 40, the “Plant response rating, Oat, Wild” value (wild oat (Avena fatua); [16]) was 55 and the “Plant response rating, Oat, Wild” value (wild oat (Avena fatua); [17]) was 85. The “Plant response rating, Ducksalad (0 to 100 scale, 0 is no effect, 100 is complete control)” value [1] was 65, the “Plant response rating, Lambsquarters” value [2, 6] was 85 and the “Plant response rating, Lambsquarters” value [2, 7] was 95. For the same compound, the “Plant response rating, Lambsquarters” value [2, 8] was 95, the “Plant response rating, Lambsquarters” value [2, 9] was 98 and the “Plant response rating, Lambsquarters” value [2, 10] was 80. For the same compound, the “Plant response rating, Lambsquarters” value [2, 11] was 100, the “Plant response rating, Lambsquarters” value [2, 12] was 100 and the “Plant response rating, Lambsquarters” value [2, 13] was 100. The “Plant response rating, Waterhemp” value (Waterhemp) was 100, the “Plant response rating, Barnyardgrass” value (Barnyardgrass) was 80 and the “Plant response rating, Oilseed Rape” value (Oilseed Rape) was 100. The “Plant response rating, Velvetleaf” value [3, 6] was 75, the “Plant response rating, Velvetleaf” value [3, 8] was 75 and the “Plant response rating, Velvetleaf” value [3, 9] was 75. The “Plant response rating, Velvetleaf” value [3, 10] was 45, the “Plant response rating, Velvetleaf” value [3, 11] was 55 and the “Plant response rating, Velvetleaf” value [3, 12] was 100. The “Plant response rating, Velvetleaf” value [3, 13] was 100, the “Plant response rating, Rice (0 to 100 scale, 0 is no effect, 100 is complete control)” value (rice (Oryza sativa)) was 45 and the “Plant response rating, Foxtail, Giant” value [4, 6] was 45. The “Plant response rating, Foxtail, Giant” value [4, 7] was 45, the “Plant response rating, Foxtail, Giant” value [4, 8] was 65 and the “Plant response rating, Foxtail, Giant” value [4, 18] was 85. For the same compound, the “Plant response rating, Foxtail, Giant” value [4, 10] was 100, the “Plant response rating, Foxtail, Giant” value [4, 11] was 100 and the “Plant response rating, Foxtail, Giant” value [4, 12] was 100. For the same compound, the “Plant response rating, Foxtail, Giant” value [4, 13] was 100, the “Plant response rating, Sedge, Umbrella (0 to 100 scale, 0 is no effect, 100 is complete control)” value [5] was 95 and the “Plant response rating, Corn” value (corn (Zea mays); [6]) was 10. The “Plant response rating, Corn” value (corn (Zea mays); [7]) was 20, the “Plant response rating, Corn” value (corn (Zea mays); [18]) was 30 and the “Plant response rating, Corn” value (corn (Zea mays); [10]) was 15. For the same compound, the “Plant response rating, Corn” value (corn (Zea mays); [11]) was 15, the “Plant response rating, Corn” value (corn (Zea mays); [12]) was 40 and the “Plant response rating, Corn” value (corn (Zea mays); [13]) was 40.
For `CCOc1nn(-c2ccc(Cl)cc2)nc1Cc1ccnc(C(F)(F)F)c1` [Compound 188], the “Plant response rating, Soybean” value (soybean (Glycine max); [6]) was 40, the “Plant response rating, Soybean” value (soybean (Glycine max); [7]) was 50 and the “Plant response rating, Soybean” value (soybean (Glycine max); [8]) was 50. For the same compound, the “Plant response rating, Soybean” value (soybean (Glycine max); [9]) was 55, the “Plant response rating, Soybean” value (soybean (Glycine max); [10]) was 5 and the “Plant response rating, Soybean” value (soybean (Glycine max); [11]) was 20. For the same compound, the “Plant response rating, Soybean” value (soybean (Glycine max); [13]) was 65, the “Plant response rating, Oat, Wild” value (wild oat (Avena fatua); [14]) was 45 and the “Plant response rating, Oat, Wild” value (wild oat (Avena fatua); [15]) was 60. For the same compound, the “Plant response rating, Oat, Wild” value (wild oat (Avena fatua); [16]) was 60, the “Plant response rating, Oat, Wild” value (wild oat (Avena fatua); [17]) was 90 and the “Plant response rating, Ducksalad (0 to 100 scale, 0 is no effect, 100 is complete control)” value [1] was 90. For the same compound, the “Plant response rating, Lambsquarters” value [2, 6] was 90, the “Plant response rating, Lambsquarters” value [2, 7] was 95 and the “Plant response rating, Lambsquarters” value [2, 8] was 98. For the same compound, the “Plant response rating, Lambsquarters” value [2, 9] was 98, the “Plant response rating, Lambsquarters” value [2, 10] was 90 and the “Plant response rating, Lambsquarters” value [2, 11] was 90. The “Plant response rating, Lambsquarters” value [2, 12] was 98, the “Plant response rating, Lambsquarters” value [2, 13] was 100 and the “Plant response rating, Waterhemp” value (Waterhemp) was 100. For the same compound, the “Plant response rating, Barnyardgrass” value (Barnyardgrass) was 98, the “Plant response rating, Oilseed Rape” value (Oilseed Rape) was 100 and the “Plant response rating, Velvetleaf” value [3, 6] was 50. The “Plant response rating, Velvetleaf” value [3, 7] was 65, the “Plant response rating, Velvetleaf” value [3, 8] was 70 and the “Plant response rating, Velvetleaf” value [3, 9] was 70. For the same compound, the “Plant response rating, Velvetleaf” value [3, 10] was 45, the “Plant response rating, Velvetleaf” value [3, 11] was 65 and the “Plant response rating, Velvetleaf” value [3, 12] was 85. The “Plant response rating, Velvetleaf” value [3, 13] was 90, the “Plant response rating, Rice (0 to 100 scale, 0 is no effect, 100 is complete control)” value (rice (Oryza sativa)) was 50 and the “Plant response rating, Foxtail, Giant” value [4, 6] was 98. For the same compound, the “Plant response rating, Foxtail, Giant” value [4, 7] was 98, the “Plant response rating, Foxtail, Giant” value [4, 8] was 98 and the “Plant response rating, Foxtail, Giant” value [4, 18] was 100. The “Plant response rating, Foxtail, Giant” value [4, 10] was 100, the “Plant response rating, Foxtail, Giant” value [4, 11] was 100 and the “Plant response rating, Foxtail, Giant” value [4, 12] was 100. For the same compound, the “Plant response rating, Foxtail, Giant” value [4, 13] was 100, the “Plant response rating, Sedge, Umbrella (0 to 100 scale, 0 is no effect, 100 is complete control)” value [5] was 100 and the “Plant response rating, Corn” value (corn (Zea mays); [6]) was 10. The “Plant response rating, Corn” value (corn (Zea mays); [7]) was 20, the “Plant response rating, Corn” value (corn (Zea mays); [8]) was 20 and the “Plant response rating, Corn” value (corn (Zea mays); [18]) was 35. The “Plant response rating, Corn” value (corn (Zea mays); [10]) was 5, the “Plant response rating, Corn” value (corn (Zea mays); [11]) was 5 and the “Plant response rating, Corn” value (corn (Zea mays); [12]) was 10. For the same compound, the “Plant response rating, Corn” value (corn (Zea mays); [13]) was 20.
